The values that follow come from patent US20150239835A1, “COMPOSITION, SYNTHESIS, AND USE OF A NEW CLASS OF ISONITRILES” (DUQUESNE UNIVERSITY OF THE HOLY GHOST, priority 2014, published 2015).

SMILES strings stand for the structures.

`[C-]#[N+]CSc1c(OC)cccc1C(F)(F)F` [Example 17, 2-((Isocyanomethyl)sulfanyl)-1-methoxy-3-(trifluoromethyl)benzene] gave a melting point of 54 to 55 °C.

In turn, `[C-]#[N+]CSc1c(OC)cccc1OC` [Example 16, (2,6-dimethoxyphenyl)(isocyanomethyl)sulfane] gave a melting point of 47 to 48 °C.

As a reminder, the melting point is the temperature of the solid-liquid transition.
